Source: paper PMC5149019, “Synthesis, Characterization and Cytotoxicity of Alkylated Quercetin Derivatives” (Iranian Journal of Pharmaceutical Research : IJPR, 2016)
Values after ≈ are worked out from the molar mass of the structure shown.

Tests used:
[1] = tested on: cancer cells; conditions: cited from earlier work
[2] = tested on: MGC-803; test: MTT cytotoxicity assay, MGC-803 cells; format: cell-based; conditions: Homo sapiens, 48 h exposure
Experimental: (§1) Taking solubility of the derivatives into consideration, BQ and GQ were selected for the primary cytotoxicity study. According to the result of the primary cytotoxicity study, the cytotoxicity of GQ on NCI-H446, A549, MGC-803 and SGC-7901 cell lines was further investigated. To justify the effectiveness of BQ and GQ, cytotoxicity of the parent compound quercetin on all the cell lines used in this study was determined either. Briefly, 8000 cells with 0.1 mL medium were seeded in 96-well microplates. The derivatives or quercetin were dissolved in DMSO (50 mM) and then diluted with the medium to a series of testing concentrations. After exposure to the derivatives or quercetin for 48 h, cells were carefully washed by PBS three times and then 0.1 mL MTT (0.5 mg/mL) was added to each well. DMSO was used as solvent for following spectrum analysis at 570 nm. Proliferation values were calculated with the formula as follow: proliferation = (Atest-Ablank)/(Acontrol-Ablank). According to the proliferation data, all IC50 values were calculated by SPSS software using probit regression assay.

[3] = tested on: MCF-7 cells; test: MTT cytotoxicity assay, MCF-7 cells; format: cell-based, human; conditions: for IC50: Homo sapiens, MCF7, MCF-7 cells, 48 h exposure, MTT
Experimental: as §1

[4] = tested on: NCI-H446; test: MTT cytotoxicity assay, NCI-H446 cells; format: cell-based; conditions: Homo sapiens, 48 h exposure
Experimental: as §1

[5] = tested on: A549; test: MTT cytotoxicity assay, A549 cells; format: cell-based; conditions: Homo sapiens, 48 h exposure
Experimental: as §1

[6] = tested on: Caco-2 cells; test: MTT cytotoxicity assay, Caco-2 cells; format: cell-based; conditions: Homo sapiens, 48 h exposure
Experimental: as §1

[7] = Solubility in DMEM medium by turbidimetry; format: physicochemical; conditions: turbidimetry at 630 nm; for solubility at 48 h: 37 °C, aqueous buffer, kinetic from dmso stock
Experimental: Solubility of the derivatives was evaluated by turbidimetry as previously described ([7]). Briefly, derivatives were dissolved in DMSO at a final concentration of 50 mM, and then diluted by DMEM medium at final concentrations of 20, 40, 60, 80, 100, 120, 140, 160, 180 and 200 μM. After these solutions were incubated at 37 ℃ for 48 h, absorbances of them at 630 nm were measured.

[8] = tested on: SGC-7901; test: MTT cytotoxicity assay, SGC-7901 cells; format: cell-based; conditions: Homo sapiens, 48 h exposure
Experimental: as §1

[9] = compared with quercetin, ref [5]

For `O=c1c(O)c(-c2cc(O)c(O)c(S(=O)(=O)O)c2)oc2c(S(=O)(=O)O)c(O)cc(O)c12` [quercetin-5′,8-disulfonate], the “increased cytotoxicity relative to quercetin” value ([1]; relative to quercetin, ref [4]) is given as “about 1.5 fold”.
In the case of `CC(=O)Oc1cc(O)c2c(=O)c(OC(C)=O)c(-c3ccc(OC(C)=O)c(OC(C)=O)c3)oc2c1` [3,7,3′,4′-O-tetraacetylquercetin], the “cytotoxicity compared with quercetin” value [1, 9] is given as “about 3 fold”.
In the case of `COc1cc(O)c2c(=O)c(OC)c(-c3ccc(OC)c(OC)c3)oc2c1` [3,7,3′,4′-O-tetramethylquercetin], the “cytotoxicity compared with quercetin (in words)” value [1, 9] is listed as “decreases the cytotoxicity”.
Compound `CC(C)=CCC/C(C)=C/COc1cc(O)c2c(=O)c(O)c(-c3ccc(O)c(O)c3)oc2c1` [GQ, 7-O-geranylquercetin] has an IC50 [2] of 25.4 µM, an IC50 [3] of 20.2 µM and an IC50 [4] of 27.6 µM. For the same compound, the IC50 [5] was 29.5 µM, the IC50 [6] was 43.7 µM and the solubility at 48 h [7] was roughly 180 µM (≈ 78.9 µg/mL). It also gave an IC50 [8] of 18.5 µM.
With `C=CCOc1cc(O)c2c(=O)c(O)c(-c3ccc(O)c(O)c3)oc2c1` [AQ, 7-O-allylquercetin] the “inhibition rate to MCF-7 cells” value ([3]; at the highest concentration) was “less than 50%” and the solubility at 48 h [7] was roughly 140 µM (≈ 47.9 µg/mL).
With `O=c1c(O)c(-c2ccc(O)c(O)c2)oc2cc(O)cc(O)c12` [Quercetin] the IC50 [2] was 80.6 µM, the IC50 [3] was 343 µM and the IC50 [4] was 68.9 µM. For the same compound, the IC50 [5] was 77.2 µM, the IC50 [6] was 340 µM and the IC50 [8] was 75.7 µM.
With `O=c1c(O)c(-c2ccc(O)c(O)c2)oc2cc(OCC=Cc3ccccc3)cc(O)c12` [CQ, 7-O-cinnamylquercetin] the “solubility in DMEM medium (in words)” value ([7]; 37 ℃, 48 h) was “almost insoluble”.
Compound `CCCCOc1cc(O)c2c(=O)c(O)c(-c3ccc(O)c(O)c3)oc2c1` [BQ, 7-O-Butylquercetin] has an IC50 [3] of 38.6 µM, an IC50 [6] of 66.8 µM and a solubility at 48 h [7] of roughly 180 µM (≈ 64.5 µg/mL).
